Measurements from PubChem BioAssay (NCI).
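Growth conditions: 96-well plates. Treatment: test compound, 48 hours, 5 concentrations. Analysis: linear interpolation between bracketing concentrations; unreached endpoints set to highest concentration. GI50 is the concentration that inhibits growth by half. Definition used: TGI = concentration required for complete inhibition of growth.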

Columns and labels:
Test in all cases: NCI-60 cell line screen, 48 h
[1] = system: CAKI-1 renal
[2] = system: HOP-62 NSCLC
[3] = system: HT29 colon
[4] = system: LOX IMVI melanoma
[5] = system: SF-539 CNS
[6] = system: SNB-19 CNS
[7] = system: U251 CNS
[8] = system: MCF7 breast
[9] = system: OVCAR-3 ovarian
[10] = system: SK-OV-3 ovarian

Compound | TGI [1] [µM] | TGI [2] [µM] | TGI [3] [µM] | TGI [4] [µM] | TGI [5] [µM] | TGI [6] [µM] | TGI [7] [µM] | GI50 [2] [µM] | GI50 [3] [µM] | GI50 [4] [µM] | GI50 [8] [µM] | TGI [8] [µM] | GI50 [9] [µM] | TGI [9] [µM] | GI50 [5] [µM] | GI50 [10] [µM] | TGI [10] [µM] | GI50 [6] [µM] | GI50 [7] [µM] | GI50 [1] [µM]
CC12Oc3ccc4ccccc4c3CC1Cc1c(ccc3ccccc13)O2 (stereo not given) | > 100 | > 100 | > 100 | > 100 | > 100 | > 100 | > 100 | – | – | – | – | – | – | – | – | – | – | – | – | –
Cc1nc(Nc2nc3ccccc3o2)nc(-c2cccc([N+](=O)[O-])c2)c1C(=O)Nc1ccc(F)c(Cl)c1 | – | 50.4 | 19.5 | > 100 | > 100 | > 100 | 8.27 | 2.58 | 2.21 | 2.78 | 2.04 | 9.73 | 1.02 | 13.8 | 3.52 | 2.8 | > 100 | 2.32 | 2.06 | –
O=C(O)CCSC(=O)Nc1ccc(N=Nc2ccccc2)cc1 | > 100 | > 100 | > 100 | > 100 | > 100 | > 100 | > 100 | – | – | – | – | – | – | > 100 | – | – | > 100 | – | – | –
COc1cc2c3c(n(CCCN=[N+]=[N-])c(=O)c2cc1OC)-c1ccc(N(C)C)cc1C3=O | – | > 100 | > 100 | > 100 | > 100 | > 100 | > 100 | > 100 | > 100 | > 100 | > 100 | > 100 | > 100 | > 100 | > 100 | > 100 | > 100 | > 100 | > 100 | –
COc1cc2c(c(OC3OC(CO)C(O)C(O)C3O)c1)C(=O)CC(c1ccc(O)cc1)O2 (stereo not given) | > 100 | – | > 100 | > 100 | > 100 | > 100 | > 100 | – | – | – | – | > 100 | – | > 100 | – | – | > 100 | – | – | –
CN(C)C(=S)/N=c1\ss/c(=N\S(=O)(=O)c2ccccc2)n1N(C)C | > 100 | > 100 | – | – | > 100 | > 100 | > 100 | – | – | – | – | – | – | > 100 | – | – | > 100 | – | – | –
c1ccc2c(c1)C1=NCCN1c1ccccc1-2 | 9.05 | 13.3 | 7.85 | 10.4 | 9.69 | 16.2 | 14 | – | – | – | – | – | – | 6.82 | – | – | 29.9 | – | – | –
CCC(Oc1ccc(OC)c2ccccc(=O)c12)C(=O)O (stereo not given) | – | > 100 | > 100 | > 100 | > 100 | > 100 | > 100 | – | – | – | – | – | – | > 100 | – | – | > 100 | – | – | –
O=C(NS(=O)(=O)c1ccccc1)C(Cc1ccccc1)C(Cc1ccccc1)C(=O)NS(=O)(=O)c1ccccc1 (stereo not given) | > 100 | > 100 | > 100 | > 100 | > 100 | > 100 | > 100 | – | – | – | – | – | – | > 100 | – | – | > 100 | – | – | –
CN1CC(=O)N(C)c2nc[nH]c2C1=O | – | – | > 100 | > 100 | > 100 | > 100 | > 100 | – | – | – | – | – | – | > 100 | – | – | > 100 | – | – | –
COC(=O)CCC(=O)NC1C2CC3CC(C2)CC1C3 (stereo not given) | > 100 | > 100 | > 100 | > 100 | > 100 | > 100 | > 100 | – | – | – | – | – | – | > 100 | – | – | > 100 | – | – | –
COC1=C2CC(C)CC(OC)C(O)C(C)/C=C(\C)C(OC(N)=O)C(OC)/C=C\C=C(/C)C(=O)NC(=C(/C=N/N3CCCCC3)C1=O)C2=O (stereo not given) | 37 | 44.5 | 26.6 | 22.3 | 20.8 | 41.9 | 20.8 | – | – | – | – | – | – | 4.62 | – | – | 55.7 | – | – | –
CC1=C(/C=C/C(C)=C/C=C/C(C)=C/CO)C(C)(C)CCC1 | > 100 | 47.5 | > 100 | 43.5 | 34.3 | 69.4 | 39 | – | – | – | – | – | – | 28.4 | – | – | > 100 | – | – | –
Cc1cccc2nc3cccc(C(=O)NCCN(C)C)c3nc12 | 15.8 | 1.39 | 5.44 | 11.6 | 1.21 | 5.27 | 4.61 | – | – | – | – | – | – | 6.45 | – | – | 6.74 | – | – | –
O=C1OC(OCC#CCOC2OC(=O)C(Cl)=C2Cl)C(Cl)=C1Cl (stereo not given) | – | 26.7 | 18.1 | 11.1 | 31.8 | 42.5 | – | – | – | – | – | 21.8 | – | 30.7 | – | – | – | – | – | –
Cc1ccccc1-n1c(C)nc(-c2ccccc2)cc1=O | > 100 | > 100 | > 100 | > 100 | > 100 | > 100 | > 100 | – | – | – | – | – | – | > 100 | – | – | > 100 | – | – | –
c1ccc(CNc2nc(Nc3ccccc3)nc3ccccc23)cc1 | 5.18 | 5.17 | 4.88 | 3.4 | 3.14 | 14.6 | 2.91 | 2.3 | 2.06 | 1.88 | – | – | 1.77 | 3.53 | 1.69 | 3.26 | 9.51 | 3.16 | 1.52 | 2.04
O=C1C=CC(CC(=O)c2ccc3ccccc3c2)O1 (stereo not given) | > 100 | 36.6 | 33.1 | 35.8 | 33.2 | 76.8 | 32.1 | – | – | – | – | – | – | 41.6 | – | – | > 100 | – | – | –
C=C1[C@@H]([C@@]2(C)C=CC(=O)C(C)(C)[C@@H]2CC(=O)OC)CC[C@@]2(C)C(c3ccoc3)OC(=O)[C@H]3O[C@]132 (stereo not given in full) | > 100 | – | > 100 | > 100 | > 100 | > 100 | > 100 | – | – | – | – | > 100 | – | > 100 | – | – | > 100 | – | – | –
C[C@H]1C(=O)CC[C@]2(C)CCC(C(C)(C)O)CC12O (stereo not given in full) | > 100 | > 100 | > 100 | > 100 | > 100 | > 100 | > 100 | – | – | – | – | – | – | > 100 | – | – | > 100 | – | – | –
O=S(=O)(C/C(=N\O)c1ccccc1)c1ccccc1 | > 100 | > 100 | > 100 | > 100 | > 100 | > 100 | > 100 | – | – | – | – | – | – | > 100 | – | – | > 100 | – | – | –
COc1ccc(Nc2c3ccccc3nc3[nH]c4ccccc4c23)cc1 | > 50 | 23.2 | > 50 | 29.5 | 20 | > 50 | 42.8 | 8.71 | 16.6 | 6.44 | 7.95 | > 50 | 19.4 | > 50 | 6.5 | – | – | 25.5 | 11.7 | 14
